Laboratory results as given in patent publication US20020137929A1, “1 - (3-heterocyclylphenyl) isothiourea, -isourea, -guanidine and -amidine herbicidal agents” (Intellectual Property Department, BASF Aktiengesellschaft, priority 1998, published 2002).

Key:
SETVI (Foxtail, Green) = assay: Postemergence herbicidal evaluation; assay type: in vivo, Setaria viridis
Method in brief: (§1)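 Compound is applied as a foliar spray to seedlings about two weeks old, formulated in equal parts acetone and water with 0.5% TWEEN 20 and delivered at 40 psi to give about 0.0156–0.500 kg per hectare. Injury is rated visually 0–9 after four to five weeks.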

ORYSAT (Rice, Tebonnet) = assay: Postemergence herbicidal evaluation; assay type: in vivo, Oryza sativa, (L.) Tebonnet
Method in brief: as §1

ZEAMX (Corn, Field) = assay: Postemergence herbicidal evaluation; assay type: in vivo, Zea mays
Method in brief: as §1

[1] = system: ECHORC (Watergrass (Calif.)); assay: Preemergence weed control under flooded paddy conditions; assay type: in vivo, Echinochloa oryzoides; conditions: rated 3-4 weeks after treatment
Method in brief: (§2)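 Flooded-pot preemergence screen with silt loam and seeds in the upper 0.5 cm. Dose about 0.0313 to 0.500 kg/ha, delivered into flood water; visual 0-9 score after 3 to 4 weeks.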

CYPIR (Rice Flatsedge) [2] = assay: as above; assay type: in vivo, Cyperus iria; conditions: rated 3-4 weeks after treatment
Method in brief: as §2

CYPSE (Flatsedge) [3] = assay: as above; assay type: in vivo, Cyperus serotinus; conditions: rated 3-4 weeks after treatment
Method in brief: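 Silt loam, seeds in top 0.5 cm; flood held 1.5-3 cm; test cpd as acetone/water 50/50 into flood water, ~0.0313-0.500 kg/ha a.i.; greenhouse 3-4 wk; visual 0-9 score vs control.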

[4] = system: ECHORC (Watergrass (Calif.)); assay: Postemergence weed control under flooded paddy conditions; assay type: in vivo, Echinochloa oryzoides; conditions: postemergence weeds, 3-4 weeks after treatment
Method in brief: (§3)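 Weeds 3 to 5 cm tall and rice seedlings at the 1.5 to 2.5 leaf stage were flooded, with water held 1.5 to 3 cm above the soil. Compounds in 50/50 v/v aqueous/acetone went into the flood water at about 0.0313 to 0.500 kg/ha. Visual 0-9 ratings versus control were made 3 to 4 weeks later.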

CYPIR (Rice Flatsedge) [5] = assay: as above; assay type: in vivo, Cyperus iria; conditions: postemergence weeds, 3-4 weeks after treatment
Method in brief: as §3

CYPSE (Flatsedge) [6] = assay: as above; assay type: in vivo, Cyperus serotinus; conditions: postemergence weeds, 3-4 weeks after treatment
Description: Results of herbicide evaluation are expressed on a rating scale (0-9). The scale is based upon a visual observation of plant stand, vigor, malformation, size, chlorosis and overall plant appearance as compared with a control.
Plastic containers containing weeds which are 3 to 5 cm tall and rice seedlings at the 1.5 to 2.5 leaf stage are flooded with water. The water is maintained at 1.5 to 3 cm above the soil surface for the duration of the experiment. Test compounds are applied as aqueous/ acetone mixtures 50/50 v/v directly into the flood water to provide the equivalent of about 0.0313 to 0.500 kg/ha of active ingredient. The treated containers are placed on greenhouse benches and cared for in accordance with conventional greenhouse procedures. Three to four weeks after treatment, the test is terminated and each container is examined and herbicidal effect rated according to the rating system provided in Example 37. The compounds evaluated are reported by compound number given in Example 37.

[7] = system: SAGPY (Arrowhead (Pygmaea)); assay: as above; assay type: in vivo, Sagittaria pygmaea; conditions: postemergence weeds, 3-4 weeks after treatment
Method in brief: as §3

## 2-{{2-Chloro-5-[3,6-dihydro-3-methyl-2,6-dioxo-4-(trifluoromethyl)-1(2H)-pyrimidinyl]-4-fluoro-phenyl}imino}-4-oxo-3,5-thiazolidenediacetic acid, 3-ethyl (2-propynyl) ester, (2:1) mixture with di-2-propynyl ester [Compound 58]
SETVI (Foxtail, Green); Rate 0.0158 kg/ha
  Postemergence herbicidal rating SETVI: 9.0
SETVI (Foxtail, Green); Rate 0.0315 kg/ha
  Postemergence herbicidal rating SETVI: 9.0
SETVI (Foxtail, Green); Rate 0.0630 kg/ha
  Postemergence herbicidal rating SETVI: 9.0
ORYSAT (Rice, Tebonnet); Rate 0.0158 kg/ha
  Postemergence herbicidal rating ORYSAT: 5.5
ORYSAT (Rice, Tebonnet); Rate 0.0315 kg/ha
  Postemergence herbicidal rating ORYSAT: 5.5
ORYSAT (Rice, Tebonnet); Rate 0.0630 kg/ha
  Postemergence herbicidal rating ORYSAT: 6.0
ZEAMX (Corn, Field); Rate 0.0158 kg/ha
  Postemergence herbicidal rating ZEAMX: 7.0
ZEAMX (Corn, Field); Rate 0.0315 kg/ha
  Postemergence herbicidal rating ZEAMX: 7.0
ZEAMX (Corn, Field); Rate 0.0630 kg/ha
  Postemergence herbicidal rating ZEAMX: 8.0
[1]; 0.0313 kg/ha
  ECHORC herbicidal effect rating: 7.0
[1]; 0.0625 kg/ha
  Herbicidal rating ECHORC: 7.0
[1]; 0.1250 kg/ha
  Herbicidal rating ECHORC: 7.0
[1]; 0.2500 kg/ha
  Herbicidal rating ECHORC: 9.0
CYPIR (Rice Flatsedge) [2]; 0.0313 kg/ha
  CYPIR herbicidal effect rating: 0.0
CYPIR (Rice Flatsedge) [2]; 0.0625 kg/ha
  Herbicidal rating CYPIR: 0.0
CYPIR (Rice Flatsedge) [2]; 0.1250 kg/ha
  Herbicidal rating CYPIR: 2.0
CYPIR (Rice Flatsedge) [2]; 0.2500 kg/ha
  Herbicidal rating CYPIR: 3.0
CYPSE (Flatsedge) [3]; 0.0313 kg/ha
  CYPSE herbicidal effect rating: 5.0
CYPSE (Flatsedge) [3]; 0.0625 kg/ha
  Herbicidal rating CYPSE: 5.0
CYPSE (Flatsedge) [3]; 0.1250 kg/ha
  Herbicidal rating CYPSE: 5.0
CYPSE (Flatsedge) [3]; 0.2500 kg/ha
  Herbicidal rating CYPSE: 5.0
[4]; rate 0.0313 kg/ha
  Herbicidal rating ECHORC: 7.0
[4]; rate 0.0625 kg/ha
  Herbicidal rating ECHORC: 7.0
[4]; rate 0.1250 kg/ha
  Herbicidal rating ECHORC: 7.0
[4]; rate 0.2500 kg/ha
  Herbicidal rating ECHORC: 9.0
CYPIR (Rice Flatsedge) [5]; rate 0.0313 kg/ha
  Herbicidal rating CYPIR: 0.0
CYPIR (Rice Flatsedge) [5]; rate 0.0625 kg/ha
  Herbicidal rating CYPIR: 0.0
CYPIR (Rice Flatsedge) [5]; rate 0.1250 kg/ha
  Herbicidal rating CYPIR: 2.0
CYPIR (Rice Flatsedge) [5]; rate 0.2500 kg/ha
  Herbicidal rating CYPIR: 3.0
CYPSE (Flatsedge) [6]; rate 0.0313 kg/ha
  Herbicidal rating CYPSE: 5.0
CYPSE (Flatsedge) [6]; rate 0.0625 kg/ha
  Herbicidal rating CYPSE: 5.0
CYPSE (Flatsedge) [6]; rate 0.1250 kg/ha
  Herbicidal rating CYPSE: 5.0
CYPSE (Flatsedge) [6]; rate 0.2500 kg/ha
  Herbicidal rating CYPSE: 5.0
[7]; rate 0.0313 kg/ha
  Herbicidal rating SAGPY: 0.0
[7]; rate 0.0625 kg/ha
  Herbicidal rating SAGPY: 0.0
[7]; rate 0.1250 kg/ha
  Herbicidal rating SAGPY: 0.0
[7]; rate 0.2500 kg/ha
  Herbicidal rating SAGPY: 4.0
